Results published in patent publication US4134980A, “Phenylalkylamino-alkyl derivatives of quinazolinone and phthalazinone” (Boehringer Ingelheim GmbH, priority 1976, dated 1979).
Counter-ions that a name gives are not always drawn.

Key:
heart rate [1] = assay: Effect on heart rate in anesthetized dogs (Table II); assay type: in vivo
heart rate [2] = assay: Effect on heart rate in anesthetized cats (Table I); assay type: in vivo
[3] = LD50 in mice, observation time of 14 days; details: mouse, in vivo, iv, observation time of 14 days
Source text: Additionally, it should be noted that at all dosage levels the test compounds were tolerated very well and produced no toxic side-effects.

SMILES | Decrease in heart rate (heart rate [1]; 1.0 mg/kg i.v.) | Duration of Effective action (heart rate [1]; 1.0 mg/kg i.v.) | Decrease in heart rate (heart rate [2]; 1.0 mg/kg i.v.) | Duration of Effective action (heart rate [2]; 1.0 mg/kg i.v.) | Decrease in heart rate (heart rate [2]; 2.0 mg/kg i.v.) | Duration of Effective action (heart rate [2]; 2.0 mg/kg i.v.) | Decrease in heart rate (heart rate [1]; 0.25 mg/kg i.v.) | Duration of Effective action (heart rate [1]; 0.25 mg/kg i.v.) | Decrease in heart rate (heart rate [2]; 0.5 mg/kg i.v.) | Duration of Effective action (heart rate [2]; 0.5 mg/kg i.v.) | also measured
COc1ccc(CCN(C)CCCn2nc(C(C)C)c3cc(OC)c(OC)cc3c2=O)cc1OC [C, 1-[4-isopropyl-6,7-dimethoxy-1(2H)-phthalizinone-2-yl]-3-[N-methyl-N-(2-(3,4-dimethoxyphenyl)-ethyl)-amino]-propane hydrochloride] | -10 beats/minute | 17 min |  |  |  |  |  |  |  |  | Decrease in heart rate (heart rate [1]; 2.0 mg/kg i.v.): -29 beats/minute; Duration of Effective action (heart rate [1]; 2.0 mg/kg i.v.): 10 min
COc1ccc(CCN(C)CCn2nc(C)c3cc(OC)c(OC)cc3c2=O)cc1OC [E, 1-[4-methyl-6,7-dimethoxy-1(2H)-phthalizinone-2-yl]-3-[N-methyl-N-(2-(3,4-dimethoxyphenyl)-ethyl)-amino]-ethane hydrochloride] |  |  | -10 beats/minute | 9 min | -13 beats/minute | 10 min |  |  |  |  | 
COc1ccc(CCN(C)CCCn2nc(C)c3cc(OC)c(OC)cc3c2=O)cc1.Cl [B, 1-[4-methyl-6,7-dimethoxy-1(2H)-phthalazinone-2-yl]-3-[N-methyl-N-(2-(4-methoxyphenyl)-ethyl)-amino]-propane hydrochloride] | -23 beats/minute | 46 min |  |  |  |  | -6 beats/minute | 24 min |  |  | 
COc1ccc(CCN(C)CCCn2ncc3cc(OC)c(OC)cc3c2=O)cc1.Cl [D, 1-[6,7-dimethoxy-1(2H)-phthalazinone-2-yl]-3-[N-methyl-N-(2-(4-methoxyphenyl)-ethyl)-amino]-propane hydrochloride] |  |  | -13 beats/minute | 25 min | -14 beats/minute | 25 min |  |  | -6 beats/minute | 10 min | 
COc1ccc(CCN(C)CCCn2nc(C)c3cc(OC)c(OC)cc3c2=O)cc1OC.Cl [A, 1-[4-methyl-6,7-dimethoxy-1(2H)-phthalazinone-2-yl]-3-[N-methyl-N-(2-(3,4-dimethoxyphenyl)-ethyl)-amino]-propane hydrochloride] | -16 beats/minute | 24 min | -23 beats/minute | > 70 min | -37 beats/minute | > 70 min | -10 beats/minute | 17 min | -16 beats/minute | > 50 min | Decrease in heart rate (heart rate [2]; 2.0 mg/kg i.d.): -25 beats/minute; Duration of Effective action (heart rate [2]; 2.0 mg/kg i.d.): > 74 min; Decrease in heart rate (heart rate [2]; 4.0 mg/kg i.d.): -34 beats/minute; Duration of Effective action (heart rate [2]; 4.0 mg/kg i.d.): > 60 min; Decrease in heart rate (heart rate [2]; 10.0 mg/kg i.d.): -41 beats/minute; Duration of Effective action (heart rate [2]; 10.0 mg/kg i.d.): > 50 min; Decrease in heart rate (heart rate [1]; 0.5 mg/kg i.v.): -12 beats/minute; Duration of Effective action (heart rate [1]; 0.5 mg/kg i.v.): 15 min; LD50 at 336 h [3]: 63 mg/kg
